Where a SMILES comes first, the peptide text is derived from it. [ ]: non-standard residue; d: D form. The star is where a group is joined. OiPr = CC(C)O*; NHBu = CCCCN*
system: not given; assay: not given; details: 5% sucrose standard; Ariyoshi et al.; cited from earlier work

Question: For `CCCOC(=O)[C@@H](CO)NC(=O)[C@@H](N)CC(=O)O` [L-aspartyl-D-serine n-propyl ester], which “times as sweet as a 5% sucrose standard” value is on record?
Answer: Its value is 320 times.

same assay, conditions: prior-art values; cited from earlier work

Question: Which Sweetness potency does the source give for `CC1CCC1C(=O)OC[C@@H](C)NC(=O)[C@@H](N)CC(=O)O` (some centres unmarked) here?
Answer: Its Sweetness potency is 160 x sucrose.

Question: Which Sweetness potency does the source give for `CCC(C)NC(=O)[C@@H](C)NC(=O)[C@@H](N)CC(=O)O` (some centres unmarked) [secondary butyl] here?
Answer: Its Sweetness potency is 100 x sucrose.

Question: For `COC(=O)C(NC(=O)[C@@H](N)CC(=O)O)C(=O)OC1CCCCC1C` (stereo partly drawn) [L-aspartylaminomalonic acid methyl 2-methylcyclohexyl diester], which Sweetness potency is on record?
Answer: Its Sweetness potency is 6600 x sucrose.

Question: For `C[C@H](COC(=O)C1CCC1)NC(=O)[C@@H](N)CC(=O)O`, which Sweetness potency is on record?
Answer: Its Sweetness potency is 220 x sucrose.

Question: Which Sweetness potency does the source give for `CCCCNC(=O)[C@@H](C)NC(=O)[C@@H](N)CC(=O)O` [n-butvlamide] (H-Asp-[dA]-NHBu) here?
Answer: Its Sweetness potency is 125 x sucrose.

Question: For `C[C@H](COC(=O)C1CC1)NC(=O)[C@@H](N)CC(=O)O`, which Sweetness potency is on record?
Answer: Its Sweetness potency is 200 x sucrose.

Question: For `CC(C)CNC(=O)[C@@H](C)NC(=O)[C@@H](N)CC(=O)O` [isobutyl], which Sweetness potency is on record?
Answer: Its Sweetness potency is 100 x sucrose.

Question: With `C[C@@H](NC(=O)[C@@H](N)CC(=O)O)C(=O)NC1CCCCC1` [cyclohexyl] as the compound, how does the Sweetness potency read?
Answer: The Sweetness potency was 100 x sucrose.

Question: With `CC(C)OC(=O)[C@@H](C)NC(=O)[C@@H](N)CC(=O)O` [L-aspartyl-D-alanine isopropyl ester] (H-Asp-[dA]-OiPr) as the compound, how does the Sweetness potency read?
Answer: Its Sweetness potency is “up to 125 x sucrose”.

system: taste panel; assay: Taste panel evaluation of blends with sodium saccharin for taste acceptability and sweetness intensity against aqueous sucrose standards; assay type: in vivo; details: single components
Procedure: Blends of L-aspartyl-D-serine N-(2,2,4,4-tetra- methylthietan-3-yl)amide and sodium saccharin were prepared and evaluated for taste acceptability and sweetness intensity by comparison with aqueous sucrose standards.
The % synergy was calculated according to the following formula [formula] where A is the actual sweetness determined by averaging the taste panel results and T is the theoretical sweetness determined from the composition of the mixtures by weight e.g., for the 1:4 blend the theoretical sweetness is (1/5 x 1200) + (4/5 x 300) = 480.

Question: Which “Sweetness potency factors used to calculate the theoretical sweetness of the blends” value does the source give for `CC1(C)SC(C)(C)C1NC(=O)[C@@H](CO)NC(=O)[C@@H](N)CC(=O)O` [Example 3, L-Aspartyl-D-serine N-(2,2,4,4-tetramethylthietan-3-yl)amide] here?
Answer: Its value is 1200 x sucrose.

Question: With `O=C1NS(=O)(=O)c2ccccc21.[Na]` [sodium saccharin] as the compound, how does the “Sweetness potency factors used to calculate the theoretical sweetness of the blends” value read?
Answer: The value was 300 x sucrose.

system: expert taste panel; assay: Sweetness potency by comparison of gustatory sweetness with a sucrose standard (expert taste panel); assay type: in vivo; details: aqueous solutions compared with aqueous sucrose solutions of 7-9% by an expert taste panel
Procedure: The sweetness potency of the instant compounds was determined by comparison of their gustatory sweetnesses with sucrose. Aqueous solutions of the compound of formula (I) diluted to a suitable range of concentrations were compared with a sucrose standard by an expert taste panel. Comparisons were generally made with aqueous sucrose solutions of 7-9%, i.e., 7-9 g. per 100 ml. Higher sucrose concentrations have a distinctive mouthfeel which may influence results and lower sucrose concentration are not indicative of normal use situations. If, for example a 0.014% solution of the compound of formula (I) is judged to be equally as sweet as a 7% sucrose solution, then the sweetness potency of that compound is 7/0.014 = 500 x sucrose. All of the sweetness potency values stated herein for the compounds of the invention were determined by this method. At threshold concentrations (i.e., the lowest concentration at which sweetness is first noticed, which for sucrose is ordinarily at concentrations in the range of 2-3%), the potency of a sweetener, such as the compounds of the invention, is generally twice that observed by comparison of its gustatory sweetness with 7-9% solutions of sucrose.

Question: For `COC[C@@H](NC(=O)[C@@H](N)CC(=O)O)C(=O)NC(C1CC1)C1CC1` [Example 6, L-Aspartyl-D-O-methylserine N-(dicyclopropylcarbinyl)amide], which Sweetness potency is on record?
Answer: Its Sweetness potency is 85 x sucrose.

Question: For `COC[C@@H](NC(=O)[C@@H](N)CC(=O)O)C(=O)NC1C(C)(C)SC1(C)C` [Example 7], which Sweetness potency is on record?
Answer: The Sweetness potency was 320 x sucrose.

Question: For `CC(C)C(NC(=O)[C@@H](CO)NC(=O)[C@@H](N)CC(=O)O)C(C)C` [Example 2, L-Aspartyl-D-serine N-(2,4-dimethyl-3-pentyl)amide], which Sweetness potency is on record?
Answer: The Sweetness potency was 180 x sucrose.

Question: For `CC1(C)C(NC(=O)[C@@H](CO)NC(=O)[C@@H](N)CC(=O)O)C(C)(C)S1(=O)=O` [Example 4, L-Aspartyl-D-serine N-(2,2,4,4-tetamethyl-1,1-dioxothietan-3-yl)amide], which Sweetness potency is on record?
Answer: Its Sweetness potency is 850 x sucrose.

Question: With `CC1(C)SC(C)(C)C1NC(=O)[C@@H](CO)NC(=O)[C@@H](N)CC(=O)O` [Example 3, L-Aspartyl-D-serine N-(2,2,4,4-tetramethylthietan-3-yl)amide] as the compound, how does the Sweetness potency read?
Answer: The Sweetness potency was 1200 x sucrose.

Question: For `COC[C@@H](NC(=O)[C@@H](N)CC(=O)O)C(=O)NC1C(C)(C)S(=O)(=O)C1(C)C` [Example 8, L-Aspartyl-D-O-methylserine N-(2,2,4,4-tetramethyl-1,1-dioxothietan-3-yl)amide], which Sweetness potency is on record?
Answer: Its Sweetness potency is 200 x sucrose.

Question: For `N[C@@H](CC(=O)O)C(=O)N[C@H](CO)C(=O)NC(C1CC1)C1CC1` [Example 1, L-Aspartyl-D-serine N-(dicyclopropylcarbinyl)amide], which Sweetness potency is on record?
Answer: The Sweetness potency was 700 x sucrose.

Question: Which Sweetness potency does the source give for `CC1CCCC(C)C1NC(=O)[C@@H](CO)NC(=O)[C@@H](N)CC(=O)O` (mixture of isomers) [Example 9, L-Aspartyl-D-serine N-(dl-cis,trans-2,6-dimethylcyclohexyl)amide] here?
Answer: The Sweetness potency was 200 x sucrose.

— patent EP0069811A1, “Branched amides of L-aspartyl-D-amino acid dipeptides and compositions thereof” (PFIZER INC., priority 1981, dated 1983)
